Source: US20260285903A1, “SYNTHESIZED BIOLOGICALLY ACTIVE COMPOUNDS AND METHODS OF MAKING AND USING” (Georgia State University Research Foundation, Inc., priority 2023, published 2026)
“Also recorded” adds a separate entry of the source. Read-outs that look alike come from different tables or passages of the source.

Key:
HIEC-6 cells = assay: MTT viability assay, 2D culture; format: cell-based; settings: Homo sapiens
Method: (§1) PBMCs were provided by STEMCELL Technologies (STEMCELL Canada Inc.) and maintained in ImmunoCult™-XF T-cell Expansion Medium (Cat #10981). HIEC-6 cells were maintained in OptiMEM 1 Reduced Serum Medium supplemented with 20 mM HEPES, 10 mM GlutaMAX, 10 ng/mL Epidermal Growth Factor, 4% (v/v) fetal bovine serum (FBS), and 1% penicillin-streptomycin (PS). HCT-116 cells were maintained in ATCC-formulated McCoy's 5a medium, supplemented with 10% (v/v) FBS and 1% PS. Caco-2/BBe cells were grown in DMEM supplemented with 10% (v/v) FBS and 1% PS (v/v). Human colon cancer stem cells (HC-CSC) were maintained in complete growth media with serum and antibiotics (Cat #M36112-39S) from Celprogen Inc. (Torrance, CA, USA).
(§2) The […] (MTT) assay was used to study the effects of M13 on the viability of four 2D-cultured human intestinal cell lines (HIEC-6, HCT-116, Caco-2/BBe, and HC-CSC).

[1] = pKa by UV metric at pH 2 to pH 12; format: physicochemical
From the text: The pKa of a drug influences lipophilicity, solubility, protein binding, and permeability, which in turn directly affects pharmacokinetic (PK) characteristics such as absorption, distribution, metabolism, and excretion.
(§3) The biopharmaceutical properties of the synthesized M13 (5-glutathione-6-shogaol) were characterized.

[2] = tested on: 3D-cultured Caco-2/BBe cells; assay: 3D droplet-based cell spheroid model, long-term cytotoxicity; settings: Homo sapiens, Caco-2, 264 h, 11 days
Method: To assess the long-term cytotoxicity of M13 against cancer cells, a 3D droplet-based Caco-2/BBe cell spheroid model was established using 3D printing. The diameter of the 3D cell spheres was approximately 1.65-1.75 mm. The 3D-cultured cells were incubated with different concentrations of M13 for 11 days, and droplet size (calculated using scanned images) and viability (live/dead cell staining and intracellular ATP) were analyzed (FIG. 12C). […] The cell viability of the M13-treated spheres was normalized as a percentage of the negative control (NC, 100% viable, without M13 treatment).

[3] = tested on: normal lung cells (IMR-90); settings: cited from earlier work
HC-CSC = assay: MTT viability assay, 2D culture; format: cell-based, human
Method: as §1, §2

HCT-116 = assay: MTT viability assay, 2D culture; format: cell-based, human
Method: as §1, §2

tester TA100 = assay: Ames test (bacterial reverse mutation), strain TA100; format: cell-based, Salmonella typhimurium; settings: TA100, all tested concentrations
Method: The mutagenic potential of M13 was assessed using the Ames test. The Ames test, or bacterial reverse mutation test, introduced by Bruce Ames and his group in the early 1970s, is currently widely employed to assess the mutagenic potential of chemical compounds. In this biological assay, several strains of Salmonella ryphimurium carrying mutations in genes responsible for histidine synthesis are used, so these strains cannot produce this critical amino acid. […]
M13 at concentrations of […] and positive (NaN3; 2-nitrofluorene (NF) and 2-amonoanthracene) and negative (PBS) controls were tested on two tester strains; TA98 reverted from histidine dependence (auxotrophy) to histidine independence (prototrophy) by frameshift mutagens and tester TA100 reverted by mutagens that cause both frameshift and base pair substitution mutations. The colony numbers on the negative, positive control and M13 treated plates were determined by manual counting. The mean number of revertants per plate, the standard deviation, and the mutation factor (i.e., mean number of revertants on the test item plate/mean number of revertants on the vehicle plate) were calculated.
Next, the mutagenic potential of M13 using a Salmonella typhimurium reverse mutation assay were assessed (Ames test). […]

[4] = tested on: lung cancer cells (H-1299); settings: cited from earlier work
cancer-related proteins = assay: Proteome Profiler Human XL Oncology Array on Caco-2/BBe cell lysates; format: cell-based; settings: 24 hours
Method: The mechanism by which M13 exerts its anti-cancer effects was explored. Cell lysates of Caco-2/BBe cells incubated for 24 hours with free M13, NL, or M13-NL were hybridized on cancer-related protein array membranes (Proteome Profiler™ Human XL Oncology Array), and cell cycle control/phosphorylation profiling protein antibody microarray slides (Cell Cycle Control Phospho Antibody Array).

[5] = Partition between octanol and aqueous buffer (Log D7.4); format: physicochemical; settings: pH 7.4
From the text: The main reason for failure in drug development is poor biopharmaceutical properties, which include low aqueous solubility, chemical instability.
as §3

Compound: CCCCCC(CC(=O)CCc1ccc(O)c(OC)c1)SCC(NC(=O)CCC(N)C(=O)O)C(=O)NCC(=O)O (stereo not shown) [M13, 5-glutathione-6-shogaol]
- IC50 (HIEC-6 cells; HIEC-6): > 100 µM
- IC50 (HIEC-6 cells; HIEC-6, 24 h): > 100 µM
- pKa ([1]; read-out: pKa1): 3.24
- pKa ([1]; read-out: pKa2): 9.12
- pKa ([1]; read-out: pKa3): 10.4
- minimal effective concentration ([2]; read-out: M13 concentration at which green fluorescence intensity is significantly lower than NC, live/dead staining): > 80 µM
- EC50 ([2]; ATP content, extrapolated dose-response curve, read-out: half-maximal effective concentration (EC50)): 182 µM
- toxicity [3]: low toxicity
- fold by which IC50 against HIEC-6 is higher (HC-CSC; HIEC-6 vs HC-CSC): 5.8 fold
- IC50 (HC-CSC; Homo sapiens, 24 h incubation): 17.4 µM
- fold by which IC50 against HIEC-6 is higher (HCT-116; HIEC-6 vs HCT-116): 2.5 fold
- IC50 (HCT-116; Homo sapiens, HCT-116, 24 h incubation): 40.1 µM
- revertant colony numbers (tester TA100): did not demonstrate an increase in revertant colony numbers; also recorded: did not increase the number of revertant colonies
- bioactivity [4]: exhibited bioactivity
- 22 cancer-related proteins, expression vs control group (cancer-related proteins): significantly down-regulated
- logD [5]: -1.75
